Data published in PubChem BioAssay (NCI).
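Test compounds were applied to cells in 96-well plates for 48 hours at 5 doses. The concentration for full growth arrest is given as TGI.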

Key:
Assay in all cases: NCI anticancer screen, dose series, 48 h
[1] = system: ACHN renal
[2] = system: HT29 colon
[3] = system: EKVX NSCLC
[4] = system: OVCAR-3 ovarian
[5] = system: SNB-19 CNS
[6] = system: LOX IMVI melanoma
[7] = system: OVCAR-5 ovarian
[8] = system: MDA-MB-435
[9] = system: DU-145 prostate
[10] = system: CAKI-1 renal
[11] = system: OVCAR-8 ovarian
[12] = system: CCRF-CEM leukemia
[13] = system: SF-268 CNS
[14] = system: UO-31 renal
[15] = system: NCI-H460 lung
[16] = system: SK-MEL-5 melanoma
[17] = system: COLO 205 colon
[18] = system: SK-MEL-28 melanoma
[19] = system: SF-539 CNS
[20] = system: TK-10 renal
[21] = system: KM12 colon
[22] = system: SF-295 CNS
[23] = system: A549 NSCLC
[24] = system: IGROV1 ovarian
[25] = system: 786-0 renal
[26] = system: HS 578T breast
[27] = system: NCI-H23 lung
[28] = system: M14 melanoma
[29] = system: UACC-62 melanoma
[30] = system: PC-3 prostate
[31] = system: SN12C renal
[32] = system: SNB-75 CNS
[33] = system: UACC-257 melanoma
[34] = system: HCT-116 colon
[35] = system: HL-60(TB) leukemia
[36] = system: NCI/ADR-RES ovarian
[37] = system: SW-620 colon
[38] = system: MOLT-4 leukemia
[39] = system: MDA-MB-231 breast
[40] = system: SK-MEL-2 melanoma
[41] = system: U251 CNS
[42] = system: HCT-15 colon
[43] = system: NCI-H522 lung
[44] = system: HCC-2998 colon
[45] = system: HOP-62 NSCLC
[46] = system: MCF7 breast
[47] = system: OVCAR-4 ovarian
[48] = system: SK-OV-3 ovarian
[49] = system: RXF 393 renal
[50] = system: BT-549 breast
[51] = system: MDA-N
[52] = system: HOP-92 NSCLC
[53] = system: K-562 leukemia
[54] = system: MALME-3M melanoma
[55] = system: RPMI-8226 leukemia
[56] = system: NCI-H226 lung
[57] = system: SR leukemia
[58] = system: A498 renal

SMILES: Cc1ccc(NC(=O)/C(CC2N=c3c(ccc4c(O)c5ccccc5c(O)c34)=NC2O)=N/NC(C)(C)C)cc1 (stereo not drawn)
- TGI [1]: 38.6 µM
- TGI [2]: 43 µM
- TGI [3]: > 100 µM
- TGI [4]: 51.7 µM
- TGI [5]: > 100 µM
- TGI [6]: 25.3 µM
- TGI [7]: > 100 µM
- TGI [8]: > 100 µM
- TGI [9]: 39.5 µM
- TGI [10]: 25.6 µM
- TGI [11]: 21.9 µM
- TGI [12]: 7.26 µM
- TGI [13]: 59 µM
- TGI [14]: 17.5 µM
- TGI [15]: 26.4 µM
- TGI [16]: 24.2 µM
- TGI [17]: > 100 µM
- TGI [18]: 39.3 µM
- TGI [19]: 25.9 µM
- TGI [20]: 39.6 µM
- TGI [21]: > 100 µM
- TGI [22]: > 100 µM
- TGI [23]: > 100 µM
- TGI [24]: 83.5 µM
- TGI [25]: 17.5 µM
- TGI [26]: 54.8 µM
- TGI [27]: 83.9 µM
- TGI [28]: 73.6 µM
- TGI [29]: 45.8 µM
- TGI [30]: 78.1 µM
- TGI [31]: 44.8 µM
- TGI [32]: 91.1 µM
- TGI [33]: > 100 µM
- TGI [34]: 29.6 µM
- TGI [35]: 28.1 µM
- TGI [36]: 20.2 µM
- TGI [37]: 70.2 µM
- TGI [38]: 22.6 µM
- TGI [39]: 18.8 µM
- TGI [40]: 81.9 µM
- TGI [41]: 63.4 µM
- TGI [42]: 44.5 µM
- TGI [43]: 97.2 µM
- TGI [44]: 78.5 µM
- TGI [45]: 43.9 µM
- TGI [46]: > 100 µM
- TGI [47]: 45.1 µM
- TGI [48]: 33.6 µM
- TGI [49]: 44.2 µM
- TGI [50]: > 100 µM
- TGI [51]: > 100 µM
- TGI [52]: 56.5 µM

SMILES: CC1(F)C=CC(=O)C=C1
- TGI [1]: > 100 µM
- TGI [2]: > 100 µM
- TGI [3]: > 100 µM
- TGI [4]: > 100 µM
- TGI [5]: > 100 µM
- TGI [6]: 31.4 µM
- TGI [7]: > 100 µM
- TGI [8]: > 100 µM
- TGI [9]: > 100 µM
- TGI [10]: > 100 µM
- TGI [11]: 42.7 µM
- TGI [12]: > 100 µM
- TGI [13]: > 100 µM
- TGI [14]: > 100 µM
- TGI [15]: > 100 µM
- TGI [16]: > 100 µM
- TGI [53]: > 100 µM
- TGI [17]: > 100 µM
- TGI [54]: 68.9 µM
- TGI [18]: > 100 µM
- TGI [19]: > 100 µM
- TGI [20]: > 100 µM
- TGI [21]: > 100 µM
- TGI [22]: > 100 µM
- TGI [23]: > 100 µM
- TGI [25]: 35 µM
- TGI [55]: > 100 µM
- TGI [56]: > 100 µM
- TGI [26]: > 100 µM
- TGI [27]: > 100 µM
- TGI [57]: > 100 µM
- TGI [28]: > 100 µM
- TGI [29]: > 100 µM
- TGI [30]: > 100 µM
- TGI [31]: > 100 µM
- TGI [32]: > 100 µM
- TGI [33]: > 100 µM
- TGI [34]: > 100 µM
- TGI [58]: > 100 µM
- TGI [35]: 93.1 µM
- TGI [36]: 34.8 µM
- TGI [37]: 42.3 µM
- TGI [38]: > 100 µM
- TGI [39]: > 100 µM
- TGI [40]: > 100 µM
- TGI [41]: > 100 µM
- TGI [42]: 45.7 µM
- TGI [43]: > 100 µM
- TGI [44]: > 100 µM
- TGI [45]: > 100 µM
- TGI [46]: > 100 µM
- TGI [47]: > 100 µM
- TGI [48]: > 100 µM
- TGI [50]: > 100 µM
- TGI [51]: > 100 µM
- TGI [52]: 72.1 µM
